Experimental data reported in publication PMC9232501, “Results of the phase I CCTG IND.231 trial of CX-5461 in patients with advanced solid tumors enriched for DNA-repair deficiencies” (Nature Communications, 2022).
Values joined by “and” are separate entries in the source; they are usually repeats but may differ in a detail not shown here. Equal values may be shown once.

How the values were obtained:
XPA knockout HAP1 cells = assay: HAP1 XPA knockout cytotoxicity (WST-1 assay) with and without UVA; assay type: cell-based; details: for WST-1 raw signal (Figure 5h): replicates
Experimental: Fig. 5 Comparison of G4 ligand photosensitization. […] Vertical axis, fractional survival, horizontal axis log10 drug concentration (M) (f) Representative images of CPD immunofluorescent staining under UV and drug treatment conditions for U2OS cells, quantified from biological duplicates in (g) (h) Scale bar = 100um. U2OS cells were treated with drug or vehicle control, then immediately irradiated with UVA 125 mJ/cm^2; and fixed 1 h later for immunofluorescence staining with CPD antibody. g Distribution of mean intensity of CPD level per cell (total n = in labels), with two biological repeats per condition. Vertical axis, mean CPD intensity per cell, horizontal axis, conditions (h) WT or KO XPA HAP1 cells assayed for cytotoxicity. Vertical axis, fractional survival (WST-1 assay). The horizontal axis, log10 drug concentration (M). Error bars = standard deviation of the mean. Three biological repeats per condition.
Human epidermal keratinocytes (HEKa) cells were sourced from Thermo Fisher Scientific, and were grown in EpiLife™ Medium with HKGS. HAP WT and XPA knockout cell lines (Horizon Discovery) were cultured in IMDM, 10% FCS. Human HCT116 cells, U2OS cells (ATCC) were grown in McCoy’s 5 A medium with 10% FBS and L-glutamine. All cell lines are mycoplasma free and have been authenticated by STR or SNP profiling. CX-5461 was provided by Senhwa Biosciences, Inc. PDS is from Sigma-Aldrich, BRACO-19 from Alfa Chemistry, PhENDC3 is from Sigma-Aldrich, γ -H2AX antibody from Abcam (1:1000 for IF) and CPD antibody (1:1500) from Cosmo Bio Ltd. (Catalog number: CAC-NM-DAD-001). The WST-1 assay was performed as previously described, γ H2AX foci staining was performed as previously described. Immunofluorescence staining of CPD was performed according to the protocol from the manufacturer (Cosmo Bio Ltd).

advanced solid tumors = assay: Efficacy assessment by RECIST 1.1 (best response, ORR, DCR, duration of response); assay type: in vivo, human; set-up: partial_response_date (time at which PR was documented) / bestchange (best change of target lesions, Figure 3): unit not given here; details: for bestchange (best change of target lesions, Figure 3): one value per patient; for time_on_study: individual patients
Experimental: Computed tomography of chest, abdomen, and pelvis was performed at baseline and every 8 weeks and as clinically indicated. All patients who had at least one post-baseline scan were included in efficacy analyses; patients with the non-target disease only were assessed for non-CR/non-PD and PD. Patients were evaluated for CR, PR, SD, or PD as defined by RECIST 1.1[23]. The objective response rate (ORR = CR+PR) and disease control rate (DCR = CR + PR + SD ≥ 6 months) are reported. Duration of response was defined as the time from when CR or PR was first documented until the first date that progressive disease was objectively documented or the time of the last disease assessment.

[1] = BRCA1/2, PALB2 or TP53 germline or somatic mutations
[2] = BRCA1/2 or PALB2 germline or somatic mutations
[3] = dose_level 2, Breast, patient 400006
[4] = dose_level 4, Ovarian, patient 400035
[5] = dose_level 8, Breast, patient 400012
[6] = dose_level 9, Breast, patient 400030

Cc1cnc(CNC(=O)c2c(=O)c3ccc(N4CCCN(C)CC4)nc3n3c2sc2ccccc23)cn1 [CX-5461] was tested, and the “WST-1 raw signal (Figure 5h)” value (XPA knockout HAP1 cells; conc 1.00E-07, 125 mJ/cm2 XPA) was 0.1279 and 0.1288, the “WST-1 raw signal (Figure 5h)” value (XPA knockout HAP1 cells; conc 1.00E-07, XPA No UV) was 0.1234 and 0.1195 and the “WST-1 raw signal (Figure 5h)” value (XPA knockout HAP1 cells; conc 1.25E-08, 125 mJ/cm2 XPA) was 0.1288 and 0.1302. The “WST-1 raw signal (Figure 5h)” value (XPA knockout HAP1 cells; conc 1.25E-08, XPA No UV) was 3.2483 and 2.9851, the “WST-1 raw signal (Figure 5h)” value (XPA knockout HAP1 cells; conc 1.56E-09, 125 mJ/cm2 XPA) was 0.1344 and 0.1335 and the “WST-1 raw signal (Figure 5h)” value (XPA knockout HAP1 cells; conc 1.56E-09, XPA No UV) was 3.436 and 3.4453. For the same compound, the “WST-1 raw signal (Figure 5h)” value (XPA knockout HAP1 cells; conc 2.00E-07, 125 mJ/cm2 XPA) was 0.0895 and 0.1298, the “WST-1 raw signal (Figure 5h)” value (XPA knockout HAP1 cells; conc 2.00E-07, XPA No UV) was 0.1255 and 0.1238 and the “WST-1 raw signal (Figure 5h)” value (XPA knockout HAP1 cells; conc 2.50E-08, 125 mJ/cm2 XPA) was 0.1291 and 0.1284. For the same compound, the “WST-1 raw signal (Figure 5h)” value (XPA knockout HAP1 cells; conc 2.50E-08, XPA No UV) was 0.4389 and 0.6241, the “WST-1 raw signal (Figure 5h)” value (XPA knockout HAP1 cells; conc 3.13E-09, 125 mJ/cm2 XPA) was 0.128 and 0.1287 and the “WST-1 raw signal (Figure 5h)” value (XPA knockout HAP1 cells; conc 3.13E-09, XPA No UV) was 3.4207 and 3.5618. The “WST-1 raw signal (Figure 5h)” value (XPA knockout HAP1 cells; conc 3.91E-10, 125 mJ/cm2 XPA) was 2.554 and 2.4891, the “WST-1 raw signal (Figure 5h)” value (XPA knockout HAP1 cells; conc 3.91E-10, XPA No UV) was 3.4121 and 3.399 and the “WST-1 raw signal (Figure 5h)” value (XPA knockout HAP1 cells; conc 5.00E-08, 125 mJ/cm2 XPA) was 0.1275 and 0.1296. For the same compound, the “WST-1 raw signal (Figure 5h)” value (XPA knockout HAP1 cells; conc 5.00E-08, XPA No UV) was 0.1252 and 0.1218, the “WST-1 raw signal (Figure 5h)” value (XPA knockout HAP1 cells; conc 6.25E-09, 125 mJ/cm2 XPA) was 0.1286 and 0.1316 and the “WST-1 raw signal (Figure 5h)” value (XPA knockout HAP1 cells; conc 6.25E-09, XPA No UV) was 3.488 and 3.4015. For the same compound, the “WST-1 raw signal (Figure 5h)” value (XPA knockout HAP1 cells; conc 7.81E-10, 125 mJ/cm2 XPA) was 0.5854 and 0.7406, the “WST-1 raw signal (Figure 5h)” value (XPA knockout HAP1 cells; conc 7.81E-10, XPA No UV) was 3.4022 and 3.4603 and the “effect of UVA radiation on cytotoxicity” value (XPA knockout HAP1 cells; with UVA) was “to a greater extent in XPA knockout cells”. The “patients with confirmed PR” value (advanced solid tumors; 3 breast, 1 ovarian, all with germline DNA-repair abnormalities) was “Four”, the “overall DCR (CR + PR + SD ≥ 6 months)” value (advanced solid tumors; 8/40, 95% CI: 9.1–35.7%) was 20% and the “Best Response Complete Response (CR), N patients” value (advanced solid tumors; All treated patients N=40) was 0. The “Best Response Partial Response (PR), N patients” value (“Best Response Partial Response” below) (advanced solid tumors; All treated patients N=40) was 4, the “Best Response Progressive Disease (PD), N patients” value (from here on “Best Response Progressive Disease”) (advanced solid tumors; All treated patients N=40) was 21 and the “Best Response Stable Disease (SD), N patients” value (advanced solid tumors; All treated patients N=40) was 11. The “Response Duration Median (range), SD” value (advanced solid tumors; All treated patients N=40, range 2.3-10.9) was 3.6 Mo, the “Response Duration Median (range), PR” value (advanced solid tumors; All treated patients N=40, range 5.5-8.2) was 6.5 Mo and the “Best Response Partial Response” value (advanced solid tumors; [1]) was 4. The “Best Response Progressive Disease” value (advanced solid tumors; [1]) was 15, the “Best Response Stable Disease (SD), N patients” value (advanced solid tumors; [1]) was 7 and the “Response Duration Median (range), PR” value (advanced solid tumors; [1]) was 6.5 (5.5-8.2) Mo. For the same compound, the “Response Duration Median (range), SD” value (advanced solid tumors; [1]) was 3.5 (3-9.2) Mo, the “Best Response Partial Response” value (advanced solid tumors; [2]) was 3 and the “Best Response Progressive Disease” value (advanced solid tumors; [2]) was 12. The “Best Response Stable Disease (SD), N patients” value (advanced solid tumors; [2]) was 7, the “Response Duration Median (range), PR” value (advanced solid tumors; [2]) was 6.3 (5.5-6.8) Mo and the “Response Duration Median (range), SD” value (advanced solid tumors; [2]) was 3.5 (3-9.2) Mo. For the same compound, the “bestchange (best change of target lesions, Figure 3)” value (“bestchange” below) (advanced solid tumors; DOSE_LEV 0) was 27.9 and 20.3 and 4.4, the “bestchange” value (advanced solid tumors; DOSE_LEV 1) was 13.1 and 6 and 1.4 and -27.5 and the “bestchange” value (advanced solid tumors; DOSE_LEV 2) was -66.7 and 51.2 and 47.1. The “bestchange” value (advanced solid tumors; DOSE_LEV 3) was 18.9 and 4 and 74.8, the “bestchange” value (advanced solid tumors; DOSE_LEV 4) was -43.4 and 50.8 and 41.7 and the “bestchange” value (advanced solid tumors; DOSE_LEV 5) was 17.1 and 6.4. For the same compound, the “bestchange” value (advanced solid tumors; DOSE_LEV 6) was -12.9 and -19.4 and 54, the “bestchange” value (advanced solid tumors; DOSE_LEV 7) was 36.2 and 20.5 and 9.7 and the “bestchange” value (advanced solid tumors; DOSE_LEV 8) was 23.1 and 10.8 and 5.6 and 0 and -62.5 and 46.6. The “bestchange” value (advanced solid tumors; DOSE_LEV 9) was 7.7 and -50, the “Best Response Progressive Disease” value (advanced solid tumors; Prior PARP Inhibitor N=8) was 6 and the “Best Response Stable Disease (SD), N patients” value (advanced solid tumors; Prior PARP Inhibitor N=8) was 1. For the same compound, the “Best Response Partial Response” value (advanced solid tumors; Prior Platinum N=32) was 2, the “Best Response Progressive Disease” value (advanced solid tumors; Prior Platinum N=32) was 18 and the “Best Response Stable Disease (SD), N patients” value (advanced solid tumors; Prior Platinum N=32) was 8. For the same compound, the “Responses observed, share of patients” value (advanced solid tumors; abstract, primarily in patients with defective homologous recombination) was 14%, the ORR (advanced solid tumors; all treated, 4/40, 95% CI: 2.8–23.7) was 10% and the ORR (advanced solid tumors; breast, ovarian, pancreas tumor types, 4/29, 95% CI: 3.9–31.7%) was 14%. The time_on_study (advanced solid tumors; dose_level 0 (50 mg/m^2 Day 1 & 8)) was 4.5667 months and 3.9425 months and 2.037 months and 1.8398 months, the time_on_study (advanced solid tumors; dose_level 1 (100 mg/m^2 Day 1 & 8)) was 1.1499 months and 5.5195 months and 3.2526 months and the time_on_study (advanced solid tumors; dose_level 2 (150 mg/m^2 Day 1 & 8)) was 10.4476 months and 1.1828 months and 0.7228 months and 0.6899 months. For the same compound, the “partial_response_date (time at which PR was documented)” value (“partial_response_date” for short) (advanced solid tumors; [3]) was 1.643, the partial_response_duration (advanced solid tumors; [3]) was 6.275 months and the time_on_study (advanced solid tumors; dose_level 3 (200 mg/m^2 Day 1 & 8)) was 7.3265 months and 1.1828 months and 0.6899 months and 0.46 months. For the same compound, the time_on_study (advanced solid tumors; dose_level 4 (250 mg/m^2 Day 1 & 8)) was 14.7187 months and 1.8398 months and 1.807 months, the “partial_response_date” value (advanced solid tumors; [4]) was 6.407 and the partial_response_duration (advanced solid tumors; [4]) was 8.246 months. The time_on_study (advanced solid tumors; dose_level 5 (325 mg/m^2 Day 1 & 8)) was 1.2485 months and 1.1828 months and 1.0185 months, the time_on_study (advanced solid tumors; dose_level 6 (475 mg/m^2 Day 1 & 8)) was 11.039 months and 3.8768 months and 1.8398 months and the time_on_study (advanced solid tumors; dose_level 7 (325 mg/m^2 Day 1, 8 & 15)) was 1.8398 months and 1.807 months and 0.8871 months. For the same compound, the time_on_study (advanced solid tumors; dose_level 8 (475 mg/m^2 Day 1, 8 & 15)) was 10.809 months and 7.3922 months and 2.1355 months and 2.0698 months and 0.9199 months, the “partial_response_date” value (advanced solid tumors; [5]) was 3.45 and the partial_response_duration (advanced solid tumors; [5]) was 6.801 months. The time_on_study (advanced solid tumors; dose_level 9 (650 mg/m^2 Day 1, 8 & 15)) was 7.8193 months and 2.9897 months and 1.6099 months and 1.577 months and 1.0185 months, the “partial_response_date” value (advanced solid tumors; [6]) was 1.708 and the partial_response_duration (advanced solid tumors; [6]) was 5.487 months. For the same compound, the “objective responses in patients who had received prior platinum” value (advanced solid tumors; in vivo) was 2/32, the “patients with durable SD (≥6 months)” value (advanced solid tumors; of 11 SD) was 4 and the “Objective response (all PR), patients” value (advanced solid tumors; of 32 evaluable patients, best response in target lesions) was 4. The “shrinkage in target lesions” value (advanced solid tumors; one patient, gBRCA2-related pancreatic cancer, best response SD) was 13% and the best response (advanced solid tumors; one patient, metastatic breast cancer, germline PALB2 frameshift mutation) was “confirmed PR”.
